Earlier results as cited in patent US6506938B1, “Process for the purifying of iopamidol” (Bracco International B.V., priority 1993, dated 2003).
Read-outs that look alike come from different tables or passages of the source.

Assays:
[1] = British patent no. 1,472,050
[2] = Boll. Chim. Farm., 120, 639, (1981)

- solubility in ethanol ([1]; ethanol, room temperature): about 10%
- solubility in methanol ([1]; methanol): practically unlimited solubility
- solubility in water ([1]; water): dissolves very easily
- solubility in benzene ([2]; benzene): practically insoluble
- solubility in chloroform ([2]; chloroform): practically insoluble
- solubility in diethylether ([2]; diethylether): practically insoluble
- solubility in ethanol ([2]; ethanol): practically insoluble
- solubility in methanol ([2]; methanol): only slightly soluble
- solubility in water ([2]; water): very soluble
SMILES: C[C@H](O)C(=O)Nc1c(I)c(C(=O)NC(CO)CO)c(I)c(C(=O)NC(CO)CO)c1I [Iopamidol, L-5-α-hydroxypropionylamino-2,4,6-triiodo-isophthalic acid bis-(1,3-dihydroxyisopropylamide)]
